The values below come from patent US8119630B2 (Arrow Therapeutics Limited, priority 2002, dated 2012).

The IC50 is the concentration needed to halve the response being measured.

The first experiment concerns RSV. The experiment is described as follows: XTT assay, RSV-infected Vero cells. Type of experiment: cell-based, Respiratory Syncytial Virus (RSV). Particulars: Table 1; Vero cells infected with RSV, m.o.i.≈0.2, 6 days at 33° C.; read-out: XTT IC50. The procedure:
Examples 1 to 74 and 83 to 124 were tested using the following protocol.
The inner 60 wells of 96 well tissue culture plates were seeded with Vero cells at 3×10^4 cells/well (1×10^4 cells/well for toxicity studies) in 100 or 150 μl of medium and incubated at 37° C. overnight or until nearing confluency. For primary screen, 25 μl compounds were added directly to 100 μl medium in single wells to duplicate plates. A third plate was prepared for simultaneous toxicity investigation.
For follow-up investigation, 70 μl of compound in duplicate wells were added directly to culture medium at 3.2× final concentration and ½ log serially diluted down columns of plate. A duplicate plate was prepared for simultaneous toxicity investigation.
Cells were infected with 25 μl RSV to give m.o.i.≈0.2. Some 100 μl of sterile distilled water were added to the outer wells of the plate and incubated at 33° C. for 6 days. Some 0.25 μl/ml PMS were added to stock XTT solution, final conc. […]. Then 25 μl warmed XTT/PMS solution were added to each well and incubated for 5 hours at 37° C. Plates were shaken (DynaTech Vari-Shaker) vigorously for 10 mins and allowed to cool for 15 mins before sealing. Absorbance at 450 nm was measured and data analysed using Microsoft Excel software.
Maximum OD450nm reading (uninfected, untreated control cells) corresponded to 100% inhibition. Minimum OD450nm readings (infected control cells) corresponded to 0% inhibition. Log 10 concentration was plotted against OD450nm and IC50 (Table 1) values were calculated from either reading 50% value from graph or using regression analysis.
Background: Tetrazolium assays rely on reduction of a dye to a coloured formazan, in cell work by metabolically active cells.
With `CCCS(=O)(=O)NC1N=C(c2ccccc2)c2ccccc2NC1=O` (centres unmarked) [Example 36], the IC50 came out at 15 µM. `CCCCS(=O)(=O)NC1N=C(c2ccccc2)c2ccccc2NC1=O` (centres unmarked) [Example 37, Butane-1-sulfonic acid-(2-oxo-5-phenyl-2,3-dihydro-H-benzo[e][1,4]diazepin-3-yl)-amide]: the IC50 came out at 15 µM. The same measure, in the same setting: for `CS(=O)(=O)NC1N=C(c2ccccc2)c2cc(Cl)ccc2NC1=O` (centres unmarked) [Example 53, N-(7-Chloro-2-oxo-5-phenyl-2,3-dihydro-1H-benzo[e][1,4]diazepin-3-yl)-methanesulformide] the value was 5 µM.

The same experiment, now with this note: human respiratory syncytial virus, Vero, 144 h, read-out: XTT IC50 (uM), Table 1; Vero cells infected with RSV, m.o.i.≈0.2, 6 days at 33° C.
`O=C(NC1N=C(c2ccccc2)c2ccccc2NC1=O)c1ccc(Cl)c(Cl)c1` (centres unmarked) [Example 21, 3,4-Dichloro-N-(2-oxo-5-phenyl-2,3-dihydro-1H-benzo[e][1,4]diazepin-3-yl)-benzamide]: the IC50 was determined as 6 µM. Same read-out and setting: then `O=C(NC1N=C(c2ccccc2)c2ccccc2NC1=O)c1ccccc1C(F)(F)F` (centres unmarked) [Example 22, N-(2-oxo-5-phenyl-2,3-dihydro-1H-benzo[e][1,4]diazepin-3-yl)-2-trifluoromethyl-benzamide], with 4 µM; and `O=C(NC1N=C(c2ccccc2)c2ccccc2NC1=O)c1ccc(Br)cc1` (centres unmarked) [Example 23, 4-Bromo-N-(2-oxo-5-phenyl-2,3-dihydro-1H-benzo[e][1,4]diazepin-3-yl)-benzamide], with 5 µM; and `Cc1ccccc1C(=O)NC1N=C(c2ccccc2)c2ccccc2NC1=O` (centres unmarked) [Example 24, 2-Methyl-N-(2-oxo-5-phenyl-2,3-dihydro-1H-benzo[e][1,4]diazepin-3-yl)-benzamide], with 3 µM. Still for that read-out and setting: for `O=C(NC1N=C(c2ccccc2)c2ccccc2NC1=O)c1ccccc1Cl` (centres unmarked) [Example 25, 2-Chloro-N-(2-oxo-5-phenyl-2,3-dihydro-1H-benzo[e][1,4]diazepin-3-yl)-benzamide] the value was 2 µM; for `O=C(NC1N=C(c2ccccc2)c2ccccc2NC1=O)c1ccccc1[N+](=O)[O-]` (centres unmarked) [Example 26, 2-Nitro-N-(2-oxo-5-phenyl-2,3-dihydro-1H-benzo[e][1,4]diazepin-3-yl)-benzamide], 2 µM. The same measure, in the same setting: for `COc1cc([N+](=O)[O-])ccc1C(=O)NC1N=C(c2ccccc2)c2ccccc2NC1=O` (centres unmarked) [Example 27a, 2-Methoxy-4-nitro-N-(2-oxo-5-phenyl-2,3-dihydro-1H-benzo[e][1,4]diazepin-3-yl)-benzamide] the value was 0.3 µM; for `COc1cc([N+](=O)[O-])ccc1C(=O)N[C@H]1N=C(c2ccccc2)c2ccccc2NC1=O` [Example 27b, (S)-2-Methoxy-4-nitro-N-(2-oxo-5-phenyl-2,3-dihydro-1H-benzo[e][1,4]diazepin-3-yl)-benzamide], less than 0.3 µM; for `O=C(NC1N=C(c2ccccc2)c2ccccc2NC1=O)c1csc2ccccc12` (centres unmarked) [Example 28, Benzo[b]thiophene-3-carboxylic acid (2-oxo-5-phenyl-2,3-dihydro-1H-benzo[e][1,4]diazepin-3-yl)-amide], 5 µM. For `O=C(NC1N=C(c2ccccc2)c2ccccc2NC1=O)c1ccc2c(c1)CCO2` (centres unmarked) [Example 29, 2,3-Dihydro-benzofuran-5-carboxylic acid (2-oxo-5-phenyl-2,3-dihydro-1H-benzo[e][1,4]diazepin-3-yl)-amide], the IC50 is 2 µM.

For the compound `O=C(NC1N=C(c2ccccc2)c2ccccc2NC1=O)c1ccno1` (centres unmarked) [Example 30, Isoxazole-5-carboxylic acid (2-oxo-5-phenyl-2,3-dihydro-1H-benzo[e][1,4]diazepin-3-yl)-amide], the IC50 came to 3 µM.

For `O=C(NC1N=C(c2ccccc2)c2ccccc2NC1=O)c1cc2ccccc2s1` (centres unmarked) [Example 31, Benzo[b]thiophene-2-carboxylic acid (2-oxo-5-phenyl-2,3-dihydro-1H-benzo[e][1,4]diazepin-3-yl)-amide], the IC50 amounted to 5 µM. `O=C(NC1N=C(c2ccccc2)c2ccccc2NC1=O)c1ccsc1` (centres unmarked) [Example 32, Thiophen-3-carboxylic acid (2-oxo-5-phenyl-2,3-dihydro-1H-benzo[e][1,4]diazepin-3-yl)-amide]: the IC50 is 2 µM.

Take `O=C(NC1N=C(c2ccccc2)c2ccccc2NC1=O)c1ccncc1` (centres unmarked) [Example 33, N-(2-Oxo-5-phenyl-2,3-dihydro-1H-benzo[e][1,4]diazepin-3-yl)-isonicotinamide]: the IC50 worked out at 2.5 µM.

Take `O=C(NC1N=C(c2ccccc2)c2ccccc2NC1=O)c1cccnc1` (centres unmarked) [Example 34, N-(2-Oxo-5-phenyl-2,3-dihydro-1H-benzo[e][1,4]diazepin-3-yl)-nicotinamide]: the IC50 came to 3 µM. Take `CS(=O)(=O)NC1N=C(c2ccccc2)c2ccccc2NC1=O` (centres unmarked) [Example 35, N-(2-Oxo-5-phenyl-2,3-dihydro-1H-benzo[e][1,4]diazepin-3-yl)methanesulfonamide]: the IC50 was found to be 6 µM. With `O=C1Nc2ccccc2C(c2ccccc2)=NC1NS(=O)(=O)c1ccccc1Br` (centres unmarked) [Example 38, 2-Bromo-N-(2-oxo-5-phenyl-2,3-dihydro-1H-benzo[e][1,4]diazepin-3-yl)-benzenesulfonamide], the IC50 was determined as 6 µM. The same measure, in the same setting: for `O=C1Nc2ccccc2C(c2ccccc2)=NC1NS(=O)(=O)c1cccc(Br)c1` (centres unmarked) [Example 39, 3-Bromo-N-(2-oxo-5-phenyl-2,3-dihydro-1H-benzo[e][1,4]diazepin-3-yl)-benzenesulfonamide] the value was 10 µM; for `O=C1Nc2ccccc2C(c2ccccc2)=NC1NS(=O)(=O)c1ccc(Br)cc1` (centres unmarked) [Example 40, 4-Bromo-N-(2-oxo-5-phenyl-2,3-dihydro-1H-benzo[e][1,4]diazepin-3-yl)-benzenesulfonamide], 10 µM; for `O=C1Nc2ccccc2C(c2ccccc2)=NC1NS(=O)(=O)c1ccccc1F` (centres unmarked) [Example 41, 2-Fluoro-N-(2-oxo-5-phenyl-2,3-dihydro-1H-benzo[e][1,4]diazepin-3-yl)-benzenesulfonamide], 10 µM. On the same count and under the same terms, for `O=C1Nc2ccccc2C(c2ccccc2)=NC1NCc1ccccc1[N+](=O)[O-]` (centres unmarked) [Example 42, 3-(2-Nitro-benzylamino)-5-phenyl-1,3-dihydro-benzo[e][1,4]diazepin-2-one] the value was 20 µM; for `O=C1Nc2ccccc2C(c2ccccc2)=NC1NCc1cccc([N+](=O)[O-])c1` (centres unmarked) [Example 43, 3-(3-Nitro-benzylamino)-5-phenyl-1,3-dihydro-benzo[e][1,4]diazepin-2-one], 30 µM; for `O=C1Nc2ccccc2C(c2ccccc2)=NC1NCc1ccc([N+](=O)[O-])cc1` (centres unmarked) [Example 44, 3-(4-Nitro-benzylamino)-5-phenyl-1,3-dihydro-benzo[e][1,4]diazepin-2-one], 10 µM.

Consider `COc1ccccc1CNC1N=C(c2ccccc2)c2ccccc2NC1=O` (centres unmarked) [Example 45, 3-(2-Methoxy-benzylamino)-5-phenyl-1,3-dihydro-benzo[e][1,4]diazepin-2-one], for which the IC50 stood at 20 µM. Take `COc1cccc(CNC2N=C(c3ccccc3)c3ccccc3NC2=O)c1` (centres unmarked) [Example 46, 3-(3-Methoxy-benzylamino)-5-phenyl-1,3-dihydro-benzo[e][1,4]diazepin-2-one]: the IC50 worked out at 30 µM. The same measure, in the same setting: then `O=C1Nc2ccccc2C(c2ccccc2)=NC1NCc1ccccc1C(F)(F)F` (centres unmarked) [Example 47, 5-Phenyl-3-(2-trifluoromethyl-benzylamino) 1,3-dihydro-benzo[e][1,4]diazepin-2-one], with 30 µM; and `O=C1Nc2ccccc2C(c2ccccc2)=NC1NCc1ccc(C(F)(F)F)cc1` (centres unmarked) [Example 49, 5-Phenyl-3-(4-trifluoromethyl-benzylamino)-1,3-dihydro-benzo[e][1,4]diazepin-2-one], with 50 µM. On to `O=C1Nc2ccccc2C(c2ccccc2)=NC1NCc1ccco1` (centres unmarked) [Example 50, 3-[(Furan-2-ylmethyl)-amino]-5-phenyl-1,3-dihydro-benzo[e][1,4]diazepin-2-one], for which the IC50 worked out at 50 µM. Turning to `CC(=O)NC1N=C(c2ccccc2)c2cc(Cl)ccc2NC1=O` (centres unmarked) [Example 51, N-(7-Chloro-2-oxo-5-phenyl-2,3-dihydro-1H-benzo[e][1,4]diazepin-3-yl)-acetamide], the IC50 is 5 µM. Turning to `CC(C)C(=O)NC1N=C(c2ccccc2)c2cc(Cl)ccc2NC1=O` (centres unmarked) [Example 52, N-(7-Chloro-2-oxo-5-phenyl-2,3-dihydro-1H-benzo[e][1,4]diazepin-3-yl)-isobutyramide], the IC50 came out at 3 µM. The same measure, in the same setting: then `O=C(NC1N=C(c2ccccc2)c2cc(Cl)ccc2NC1=O)c1ccco1` (centres unmarked) [Example 54, Furan-2-carboxylic acid (7-chloro-2-oxo-5-phenyl-2,3-dihydro-1H-benzo[e][1,4]diazepin-3-yl)-amide], with 1.5 µM. Regarding `O=C(NC1N=C(c2ccccc2)c2cc(Cl)ccc2NC1=O)c1cccs1` (centres unmarked) [Example 55, Thiophene-2-carboxylic acid (7-chloro-2-oxo-5-phenyl-2,3-dihydro-1H-benzo[e][1,4]diazepin-3-yl)-amide], the IC50 is 3 µM.
